Results reported in US10233498B2, “Therapeutic agent for emphysema and COPD” (TRUSTEES OF BOSTON UNIVERSITY, priority 2011, dated 2019).
Entries after “also recorded” stand apart in the source; their conditions may differ.

Assays:
[1] = test system: human lung fibroblasts (HFL-1); assay: Gene expression profiling (microarray, GSEA) of treated HFL-1 fibroblast cultures; assay type: cell-based
Protocol: GSEA was used to explore connections to other datasets. Genes in this dataset were ranked by the t-statistic of the Lm term in the linear model represented by equation (2) shown above. […] For those datasets where raw data was available, the Entrez gene chip definition file (CDF) was used to obtain RMA normalized expression values. Genes from these datasets were ranked by t-statistic. For dichotomous variables, the t-statistic was calculated from a comparison of expression levels observed in the two groups (e.g. cases and controls). For continuous variables, the t-statistic was from a linear model of expression as a function of the continuous variable (e.g. FEV1). Datasets that measured the effect of TGFβ ligands on gene expression in various cell types included Chambers et al., (The American journal of pathology 2003162:533-46) Verrecchia et al., (The Journal of biological chemistry 2001 276:17058-62), GSE749712, GSE545010, GSE665314, GSE1171013, and GSE172415. Lists of genes that change with TGFβ exposure were taken from the publication associated with the microarray data. If lists of at least 25 genes could not be obtained from the literature, the raw data was used from GEO and normalized as described above. The 200 genes with the highest fold change and the 200 genes with the lowest fold change were used as gene sets and compared to a list of all genes from this dataset ranked by their correlation to Lm.
(§1) Normal human diploid lung fibroblasts (HFL-1) were obtained from the American Type Culture Collection (Manassas, Va.) and used between 3-5 consequent passages after thawing of frozen cells. HFL-1 cells were placed in 6-well culture plates (BD Biosciences, Mississauga, ON) at a density of 1×10^5 cells per well in complete cell culture medium (CCM, DMEM supplemented with 10% FBS, 2 mM L-glutamine and 1% of antibiotic solution; Invitrogen, Burlington, ON). Cells were cultured at 37° C. and 5% CO2 in CCM before they reached 80% confluence. Cells were quiesced in CCM with 1% FBS overnight. […] Cells exposed to the CCM with added DMSO served as a vehicle control. Experiments were repeated 3 times using HFL-1 cells during 3 consequent cell culture passages. Total RNA was isolated from HFL-1 monolayers using RNeasy Plus Mini-Kit (Qiagen, Valencia, Calif.) as per manufacturer's instructions. Quantity and quality of the isolated RNA was determined using Agilent 2100 Bioanalyzer (Agilent Technologies, Mississauga, ON). Isolated RNA was processed and hybridized onto the Human Gene 1.0 ST array (Affymetrix Inc., Santa Clara, Calif.) according to the manufacturer's protocol. Transcript-level gene expression estimates were generated using RMA with the Entrez gene CDF version v11. […] Gene expression profiles were ranked for each treatment by t-statistic.

[2] = test system: β1-integrin; assay: Immunoblotting for β1-integrin in HFL-1 cells; assay type: cell-based, human; conditions: HFL-1, 48 hrs, FIG. 8A
Protocol: as §1
Production of β1-integrin by HFL-1 cells was assessed by immunoblotting as previously described (Pechkovsky, D. V. et al. The Journal of biological chemistry 2008 283:12898-908). Briefly, total cell protein was extracted from cultured HFL-1 using Cell Protein Extraction Buffer (Biosource, Camarillo, Calif.), quantified by DC Protein Assay (Bio-Rad, Hercules, Calif.), resolved by SDS-PAGE, and transferred to nitrocellulose membranes. Membranes were probed with mouse anti-human β1-integrin antibody (clone 419127, R&D Systems, Minneapolis, Minn.) and anti-β-tubulin antibody (Millipore, Billerica, Mass.) as a loading control. […] Density of the bands was quantified using Odyssey software 2.1 (LI-COR Biosciences). […]

| Substance | GSEA: genes that increase after treatment among genes whose expression decreases with increasing emphysema ([1]; GHK 0.1 nM or 10 nM (either concentration), HFL-1, FIG. 7A) | GSEA: 200 genes most induced by GHK at 1 μM in CMap cancer cell lines among genes that increase with treatment in HFL-1 ([1]; GHK 0.1 nM, 48 hrs, HFL-1, FIG. 7B) | ITGB1 expression profile ([1]; GHK 0.1 nM, HFL-1, p=0.004) | GSEA: genes whose expression is decreased with increasing emphysema severity among genes induced by treatment ([1]; GHK 10 nM, 48 hrs, HFL-1, FIG. 7C) | GSEA: genes whose expression is altered by GHK treatment among genes that change with TGFβ1 treatment ([1]; GHK at either concentration (0.1 nM, 10 nM), HFL-1, FIGS. 7B-7D) | β1-integrin (ITGB1) protein levels vs vehicle (DMSO) treated controls ([2]; GHK 0.1 or 10 nM, p<0.01) | GSEA: genes most induced by treatment among genes that decrease in expression with increasing regional emphysema severity ([1]; TGFβ1 10 ng/ml, human lung fibroblasts, FDR<0.05, FIG. 7A) | β1-integrin (ITGB1) protein levels vs vehicle (DMSO) treated controls ([2]; TGFβ 10 ng/mL, p<0.05) | β1-integrin (ITGB1) protein levels vs vehicle (DMSO) treated controls ([2]; TGFβ 10 ng/mL, p<0.05, listed as TGFβ) |
| --- | --- | --- | --- | --- | --- | --- | --- | --- | --- |
| Glycine-Histidine-Lysine [GHK] | enriched | enriched | significantly upregulated | enriched | enriched | significantly induced; also recorded: increase |  |  |  |
| TGFβ1: recombinant human TGFβ1 (10 ng/ml, PeproTech) |  |  |  |  |  |  | enriched | significantly induced | increase |
